Source: PubChem BioAssay AID1259407 (Chemical Carcinogenesis Research Information System (CCRIS), 2018)
The source made the active and inactive calls. The rule behind the calls is not given here.

System: CCRIS mutagenicity, Ames/micronucleus/aberration tests
Assay: CCRIS mutagenicity studies
[1] = Test System: AMES SALMONELLA TYPHIMURIUM, Strain/Indicator: TA98, Metabolic Activation: NONE, Method: PREINCUBATION
[2] = Test System: AMES SALMONELLA TYPHIMURIUM, Strain/Indicator: TA100, Metabolic Activation: NONE, Method: PREINCUBATION
[3] = Test System: AMES SALMONELLA TYPHIMURIUM, Strain/Indicator: TA98, Metabolic Activation: NONE, Method: STANDARD PLATE
[4] = Test System: AMES SALMONELLA TYPHIMURIUM, Strain/Indicator: TA100, Metabolic Activation: NONE, Method: STANDARD PLATE
[5] = Test System: AMES SALMONELLA TYPHIMURIUM, Strain/Indicator: TA1535, Metabolic Activation: NONE, Method: STANDARD PLATE

Question: Which mutagenic call [1] does the source give for `CC(C)CC=O` here?
Answer: The mutagenic call was “inactive; negative”.

Question: And the mutagenic call (Test System: AMES SALMONELLA TYPHIMURIUM, Strain/Indicator: TA98, Metabolic Activation: RAT, LIVER, S-9, AROCLOR 1254, Method: PREINCUBATION)?
Answer: Its mutagenic call is “inactive; negative”.

Question: What about the mutagenic call [2] of the same compound?
Answer: The mutagenic call was “inactive; negative”.

Question: And the mutagenic call (Test System: AMES SALMONELLA TYPHIMURIUM, Strain/Indicator: TA100, Metabolic Activation: RAT, LIVER, S-9, AROCLOR 1254, Method: PREINCUBATION)?
Answer: Its mutagenic call is “inactive; negative”.

Question: What about the mutagenic call (Test System: AMES SALMONELLA TYPHIMURIUM, Strain/Indicator: TA102, Metabolic Activation: NONE, Method: PREINCUBATION) of the same compound?
Answer: The mutagenic call was “inactive; negative”.

Question: What about the mutagenic call (Test System: AMES SALMONELLA TYPHIMURIUM, Strain/Indicator: TA102, Metabolic Activation: RAT, LIVER, S-9, AROCLOR 1254, Method: PREINCUBATION) of the same compound?
Answer: The mutagenic call was “inactive; negative”.

Question: For `C[C@]12C=CC3=C4CCC(=O)C=C4CC[C@H]3[C@@H]1CC[C@H]2O`, which mutagenic call [3] is on record?
Answer: Its mutagenic call is “inactive; negative”.

Question: And the mutagenic call (Test System: AMES SALMONELLA TYPHIMURIUM, Strain/Indicator: TA98, Metabolic Activation: RAT, LIVER, S-9, AROCLOR 1254, Method: STANDARD PLATE)?
Answer: The mutagenic call was “inactive; negative”.

Question: What about the mutagenic call [4] of the same compound?
Answer: The mutagenic call was “inactive; negative”.

Question: What about the mutagenic call (Test System: AMES SALMONELLA TYPHIMURIUM, Strain/Indicator: TA100, Metabolic Activation: RAT, LIVER, S-9, AROCLOR 1254, Method: STANDARD PLATE) of the same compound?
Answer: The mutagenic call was “inactive; negative”.

Question: What about the mutagenic call [5] of the same compound?
Answer: The mutagenic call was “inactive; negative”.

Question: What about the mutagenic call (Test System: AMES SALMONELLA TYPHIMURIUM, Strain/Indicator: TA1535, Metabolic Activation: RAT, LIVER, S-9, AROCLOR 1254, Method: STANDARD PLATE) of the same compound?
Answer: Its mutagenic call is “inactive; negative”.

Question: And the mutagenic call (Test System: AMES SALMONELLA TYPHIMURIUM, Strain/Indicator: TA1537, Metabolic Activation: NONE, Method: STANDARD PLATE)?
Answer: Its mutagenic call is “inactive; negative”.

Question: And the mutagenic call (Test System: AMES SALMONELLA TYPHIMURIUM, Strain/Indicator: TA1537, Metabolic Activation: RAT, LIVER, S-9, AROCLOR 1254, Method: STANDARD PLATE)?
Answer: Its mutagenic call is “inactive; negative”.

Question: And the mutagenic call (Test System: AMES SALMONELLA TYPHIMURIUM, Strain/Indicator: TA1538, Metabolic Activation: NONE, Method: STANDARD PLATE)?
Answer: The mutagenic call was “inactive; negative”.

Question: What about the mutagenic call (Test System: AMES SALMONELLA TYPHIMURIUM, Strain/Indicator: TA1538, Metabolic Activation: RAT, LIVER, S-9, AROCLOR 1254, Method: STANDARD PLATE) of the same compound?
Answer: Its mutagenic call is “inactive; negative”.

Question: What about the mutagenic call (Test System: CHO/HGPRT, Strain/Indicator: CHO-K1-BH4, Metabolic Activation: NONE, Method: STANDARD PLATE) of the same compound?
Answer: Its mutagenic call is “inactive; negative”.

Question: And the mutagenic call (Test System: CHO/HGPRT, Strain/Indicator: CHO-K1-BH4, Metabolic Activation: RAT, LIVER, S-9, AROCLOR 1254, Method: STANDARD PLATE)?
Answer: Its mutagenic call is “inactive; negative”.

Question: Which mutagenic call (Test System: AMES SALMONELLA TYPHIMURIUM, Strain/Indicator: TA97, Metabolic Activation: HAMSTER, LIVER, S-9, AROCLOR 1254 (10 OR 30%), Method: PREINCUBATION) does the source give for `Nc1cc(C(=O)O)c(O)c(S(=O)(=O)O)c1` here?
Answer: Its mutagenic call is “inactive; negative”.

Question: And the mutagenic call (Test System: AMES SALMONELLA TYPHIMURIUM, Strain/Indicator: TA97, Metabolic Activation: NONE, Method: PREINCUBATION)?
Answer: The mutagenic call was “inactive; negative”.

Question: And the mutagenic call (Test System: AMES SALMONELLA TYPHIMURIUM, Strain/Indicator: TA97, Metabolic Activation: RAT, LIVER, S-9, AROCLOR 1254 (10%), Method: PREINCUBATION)?
Answer: The mutagenic call was “inactive; negative”.

Question: And the mutagenic call (Test System: AMES SALMONELLA TYPHIMURIUM, Strain/Indicator: TA97, Metabolic Activation: RAT, LIVER, S-9, AROCLOR 1254 (30%), Method: PREINCUBATION)?
Answer: Its mutagenic call is “inactive; negative”.

Question: What about the mutagenic call (Test System: AMES SALMONELLA TYPHIMURIUM, Strain/Indicator: TA98, Metabolic Activation: HAMSTER, LIVER, S-9, AROCLOR 1254 (10 OR 30%), Method: PREINCUBATION) of the same compound?
Answer: The mutagenic call was “inactive; negative”.

Question: What about the mutagenic call [1] of the same compound?
Answer: The mutagenic call was “inactive; negative”.

Question: And the mutagenic call (Test System: AMES SALMONELLA TYPHIMURIUM, Strain/Indicator: TA98, Metabolic Activation: RAT, LIVER, S-9, AROCLOR 1254 (10 OR 30%), Method: PREINCUBATION)?
Answer: Its mutagenic call is “inactive; negative”.

Question: And the mutagenic call (Test System: AMES SALMONELLA TYPHIMURIUM, Strain/Indicator: TA100, Metabolic Activation: HAMSTER, LIVER, S-9, AROCLOR 1254 (10 OR 30%), Method: PREINCUBATION)?
Answer: The mutagenic call was “inactive; negative”.

Question: What about the mutagenic call [2] of the same compound?
Answer: The mutagenic call was “inactive; negative”.

Question: And the mutagenic call (Test System: AMES SALMONELLA TYPHIMURIUM, Strain/Indicator: TA100, Metabolic Activation: RAT, LIVER, S-9, AROCLOR 1254 (10 OR 30%), Method: PREINCUBATION)?
Answer: The mutagenic call was “inactive; negative”.

Question: And the mutagenic call (Test System: AMES SALMONELLA TYPHIMURIUM, Strain/Indicator: TA1535, Metabolic Activation: HAMSTER, LIVER, S-9, AROCLOR 1254 (10 OR 30%), Method: PREINCUBATION)?
Answer: Its mutagenic call is “inactive; negative”.

Question: And the mutagenic call (Test System: AMES SALMONELLA TYPHIMURIUM, Strain/Indicator: TA1535, Metabolic Activation: NONE, Method: PREINCUBATION)?
Answer: The mutagenic call was “inactive; negative”.

Question: And the mutagenic call (Test System: AMES SALMONELLA TYPHIMURIUM, Strain/Indicator: TA1535, Metabolic Activation: RAT, LIVER, S-9, AROCLOR 1254 (10 OR 30%), Method: PREINCUBATION)?
Answer: Its mutagenic call is “inactive; negative”.

Question: And the mutagenic call (Test System: AMES SALMONELLA TYPHIMURIUM, Strain/Indicator: TA1537, Metabolic Activation: HAMSTER, LIVER, S-9, AROCLOR 1254 (10 OR 30%), Method: PREINCUBATION)?
Answer: The mutagenic call was “inactive; negative”.

Question: And the mutagenic call (Test System: AMES SALMONELLA TYPHIMURIUM, Strain/Indicator: TA1537, Metabolic Activation: NONE, Method: PREINCUBATION)?
Answer: The mutagenic call was “inactive; negative”.

Question: And the mutagenic call (Test System: AMES SALMONELLA TYPHIMURIUM, Strain/Indicator: TA1537, Metabolic Activation: RAT, LIVER, S-9, AROCLOR 1254 (10 OR 30%), Method: PREINCUBATION)?
Answer: Its mutagenic call is “inactive; negative”.

Question: What does the source list for `C[C@@H]1C[C@H]2[C@@H]3CCC4=CC(=O)C=C[C@]4(C)[C@@]3(F)[C@@H](O)C[C@]2(C)[C@@]1(O)C(=O)CO`?
Answer: mutagenic call (End Point: IN VITRO CHROMOSOMAL ABERRATIONS, Test System: HUMAN PERIPHERAL LYMPHOCYTES, Metabolic Activation: NONE): active; positive at 10 and 100 ug/ml with 72 hr treatment; mutagenic call (End Point: IN VIVO MICRONUCLEUS, Test System: BONE MARROW POLYCHROMATIC ERYTHROCYTES, Species: MOUSE, Strain/Sex: SWISS/MALE, Route: IP INJECTION (SINGLE DOSE)): active; positive; mutagenic call (Test System: AMES SALMONELLA TYPHIMURIUM, Strain/Indicator: TA97A, Metabolic Activation: NONE, Method: STANDARD PLATE): inactive; negative; mutagenic call (Test System: AMES SALMONELLA TYPHIMURIUM, Strain/Indicator: TA97A, Metabolic Activation: RAT, LIVER, S-9, PHENOBARBITAL, Method: STANDARD PLATE): inactive; negative; mutagenic call [3]: inactive; negative; mutagenic call (Test System: AMES SALMONELLA TYPHIMURIUM, Strain/Indicator: TA98, Metabolic Activation: RAT, LIVER, S-9, PHENOBARBITAL, Method: STANDARD PLATE): inactive; negative; mutagenic call [4]: inactive; negative; mutagenic call (Test System: AMES SALMONELLA TYPHIMURIUM, Strain/Indicator: TA100, Metabolic Activation: RAT, LIVER, S-9, PHENOBARBITAL, Method: STANDARD PLATE): inactive; negative; mutagenic call [5]: inactive; negative; mutagenic call (Test System: AMES SALMONELLA TYPHIMURIUM, Strain/Indicator: TA1535, Metabolic Activation: RAT, LIVER, S-9, PHENOBARBITAL, Method: STANDARD PLATE): inactive; negative
